Some test systems named below: HS 578T breast; HL-60(TB) leukemia; HCT-15 colon; SN12C renal; HOP-92 NSCLC; UACC-257 melanoma; MDA-MB-231 breast; A549 NSCLC; OVCAR-8 ovarian; UO-31 renal.
Common to all, as to assay: inhibition of tumour cell growth, NCI panel, 48 h

Each structure is given as a SMILES string. “And” between values parts separate entries of the source, which are not always exact repeats. Equal entries are not always repeated.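 Growth conditions: 96-well plates. Treatment: test compound, 48 hours, 5 concentrations. Analysis: linear interpolation between bracketing concentrations; unreached endpoints set to highest concentration. GI50 = concentration required for 50% inhibition of growth. The concentration for full growth arrest is given as TGI.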

In the case of `CCCc1n(Cc2ccc3ccccc3n2)cc[n+]1Cc1ccc2ccccc2n1`, the GI50 was 3.54 µM with HS 578T breast; 0.34 µM with HL-60(TB) leukemia; 37.9 µM in the assay with HCT-15 colon; 2.23 µM in the assay on SN12C renal; 0.56 µM in the assay on HOP-92 NSCLC; 0.778 µM in the assay on UACC-257 melanoma. Further, the GI50 with MDA-MB-231 breast was 2.11 µM; in the assay on A549 NSCLC, 7.73 µM; with OVCAR-8 ovarian, 3.16 µM; with UO-31 renal, 16.5 µM. For the same compound, the TGI with HS 578T breast was 23 µM; in the assay on HL-60(TB) leukemia, 1.69 µM; in the assay on HCT-15 colon, over 100 µM; in the assay on SN12C renal, 11.8 µM; with HOP-92 NSCLC it was 4.18 µM; in the assay with UACC-257 melanoma, 4.84 µM. Moreover, the TGI in the assay with MDA-MB-231 breast is 8.47 µM; with A549 NSCLC it was over 100 µM; in the assay on OVCAR-8 ovarian, 12.3 µM; in the assay on UO-31 renal it was 73.9 µM.
Consider `COc1cc(-c2nn(-c3cccc(NC(=O)CCN4CCN(C)CC4)c3)cc2-c2ccncc2)ccc1Cl`, for which the GI50 was 1.41 µM with HS 578T breast; 0.735 µM in the assay with HL-60(TB) leukemia; 1.08 µM with HCT-15 colon; 2.05 µM with SN12C renal; 0.675 µM in the assay with HOP-92 NSCLC; 1.44 µM with UACC-257 melanoma. Moreover, the GI50 was 1.69 µM in the assay on MDA-MB-231 breast, 1.4 µM in the assay with A549 NSCLC, 2.77 µM in the assay with OVCAR-8 ovarian and 1.38 µM in the assay with UO-31 renal. The TGI in the assay with HS 578T breast worked out at 6.39 µM; in the assay on HL-60(TB) leukemia it was 2.79 µM; with HCT-15 colon it was 4.11 µM; in the assay on SN12C renal, 8.45 µM; in the assay with HOP-92 NSCLC, 6.42 µM; in the assay with UACC-257 melanoma, 3.07 µM. Further, the TGI in the assay with MDA-MB-231 breast was 3.66 µM; with A549 NSCLC it was 4.9 µM; with OVCAR-8 ovarian, 12 µM; in the assay on UO-31 renal it was 3.91 µM.
Take `COc1ccc2c(c1)C(=O)c1c-2c(N2CCN(C(=O)CCNCCNCCO)CC2)nc2ccccc12`: the GI50 in the assay with HS 578T breast is 16.1 µM; with HL-60(TB) leukemia it was 10.3 µM; with HCT-15 colon, 17.1 µM; in the assay with SN12C renal, 15.9 µM; with HOP-92 NSCLC, 3.77 µM; with UACC-257 melanoma, 20.8 µM. In addition, the GI50 with MDA-MB-231 breast is 13.5 µM; in the assay with A549 NSCLC it was 13.2 µM; in the assay with OVCAR-8 ovarian, 19.5 µM; with UO-31 renal it was 13.9 µM. For the same compound, the TGI in the assay on HS 578T breast came out at 35.4 µM; in the assay with HL-60(TB) leukemia, 25.8 µM; in the assay on HCT-15 colon it was 33.9 µM; in the assay on SN12C renal, 31.7 µM; with HOP-92 NSCLC, 18.2 µM; in the assay on UACC-257 melanoma, 42.1 µM. The TGI in the assay with MDA-MB-231 breast was found to be 30.9 µM; in the assay with A549 NSCLC, 28 µM; in the assay on OVCAR-8 ovarian, 48.3 µM; in the assay on UO-31 renal, 31.4 µM.
In the case of `CC(=O)C(C=O)C(C)=O.CC(=O)CC(C)=O.CC(=O)CC(C)=O.[Ru]`, the GI50 with HS 578T breast was 0.0635 µM; in the assay on HL-60(TB) leukemia it was 30.4 µM; in the assay on HCT-15 colon, 11.7 µM; in the assay with SN12C renal, 1.97 µM; in the assay on HOP-92 NSCLC, 17.4 µM; with UACC-257 melanoma it was 32.9 µM. In addition, the GI50 in the assay on MDA-MB-231 breast is 15.7 µM; with A549 NSCLC, 33.5 µM; with OVCAR-8 ovarian, 17.4 µM; with UO-31 renal, 26.9 µM. Also, the TGI was 4.2 µM in the assay on HS 578T breast; over 100 µM in the assay with HL-60(TB) leukemia; 93.6 µM in the assay on HCT-15 colon; 9.18 µM in the assay on SN12C renal; 94.1 µM in the assay with HOP-92 NSCLC; over 100 µM in the assay with UACC-257 melanoma. Moreover, the TGI in the assay on MDA-MB-231 breast is 68.8 µM; in the assay with A549 NSCLC, over 100 µM; in the assay with OVCAR-8 ovarian, over 100 µM; in the assay with UO-31 renal it was over 100 µM.
As to `COc1ccc2nc3cc(Cl)ccc3c(Nc3cc(C(C)C)c(O)cc3C)c2c1`, the GI50 was 1.61 µM with HS 578T breast; 1.31 µM in the assay on HL-60(TB) leukemia; 1.7 µM in the assay on HCT-15 colon; 2.55 µM with SN12C renal; 1.16 µM with HOP-92 NSCLC; 1.35 µM in the assay with UACC-257 melanoma. Also, the GI50 in the assay on MDA-MB-231 breast was 1.82 µM; with A549 NSCLC it was 2.26 µM; with OVCAR-8 ovarian it was 2.06 µM; in the assay with UO-31 renal it was 1.49 µM. Besides, the TGI was 3.4 µM in the assay with HS 578T breast; 3.62 µM with HCT-15 colon; 7.42 µM in the assay on SN12C renal; 3.11 µM in the assay on HOP-92 NSCLC; 3.07 µM in the assay on UACC-257 melanoma; 3.97 µM in the assay with MDA-MB-231 breast. Moreover, the TGI is 6.98 µM in the assay on A549 NSCLC, 4.47 µM in the assay with OVCAR-8 ovarian and 2.98 µM with UO-31 renal.
On to `CNc1ncc2cc(-c3cc(NC(=O)NCCC(C)(C)C)c(F)cc3C)c(C)nc2n1`, for which the GI50 in the assay on HS 578T breast is 0.839 µM and 0.582 µM; in the assay on HL-60(TB) leukemia, 0.0668 µM and 0.0811 µM; with HCT-15 colon, 0.407 µM and 0.429 µM; with SN12C renal, 0.485 µM and 0.411 µM; in the assay with HOP-92 NSCLC it was 0.0571 µM and 0.0903 µM; with UACC-257 melanoma, 0.0139 µM. Moreover, the GI50 in the assay on MDA-MB-231 breast was 0.0619 µM and 0.156 µM; with A549 NSCLC it was 0.754 µM and 0.598 µM; in the assay with OVCAR-8 ovarian, 0.512 µM and 0.515 µM; with UO-31 renal, 0.143 µM and 0.117 µM. Also, the TGI was 33.5 µM and > 10 µM with HS 578T breast; 17.8 µM and > 10 µM in the assay on HL-60(TB) leukemia; over 64.8 µM in the assay on HCT-15 colon; over 100 µM with SN12C renal; 0.423 µM and 0.511 µM in the assay with HOP-92 NSCLC; 0.0555 µM in the assay on UACC-257 melanoma. Moreover, the TGI in the assay on MDA-MB-231 breast is 1.67 µM and 1.41 µM; in the assay on A549 NSCLC it was over 100 µM; in the assay with OVCAR-8 ovarian, over 100 µM; with UO-31 renal, over 67.7 µM.
In the case of `C[C@H](c1ccccc1)N(CCC(=O)O)C(=O)CCN(C(=O)CCN(C(=O)CCN[C@H](C)c1ccccc1)[C@H](C)c1ccccc1)[C@H](C)c1ccccc1`, the GI50 in the assay on HS 578T breast is over 100 µM; in the assay on HL-60(TB) leukemia, over 100 µM; in the assay with HCT-15 colon it was over 100 µM; in the assay on SN12C renal, over 100 µM; in the assay with HOP-92 NSCLC, 92 µM; in the assay with UACC-257 melanoma, over 100 µM. Further, the GI50 with MDA-MB-231 breast, in the assay on A549 NSCLC, in the assay with OVCAR-8 ovarian and in the assay with UO-31 renal was over 100 µM throughout. Besides, the TGI with HS 578T breast, in the assay on HL-60(TB) leukemia, in the assay on HCT-15 colon, in the assay on SN12C renal, in the assay on HOP-92 NSCLC and in the assay with UACC-257 melanoma was over 100 µM each time. Besides, the TGI in the assay with MDA-MB-231 breast, in the assay on A549 NSCLC, in the assay with OVCAR-8 ovarian and in the assay with UO-31 renal was over 100 µM each time.

Source of the values: PubChem BioAssay (NCI).
